Assay in all cases: NCI-60 cell line screen, 48 h
Assay [1] concerns M14 melanoma.
Assay [2] deals with OVCAR-3 ovarian.
The test system of assay [3] is MOLT-4 leukemia.
In assay [4] the test system is OVCAR-5 ovarian.
Assay [5] deals with SR leukemia.
In assay [6] the test system is SF-268 CNS.
Assay [7] has as its system IGROV1 ovarian.
The test system of assay [8] is K-562 leukemia.
Assay [9] relates to UO-31 renal.
For assay [10], the system named is SN12C renal.

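Interpolation was linear, between the two tested concentrations surrounding the appropriate level; five concentrations were tested over 48 hours in 96-well plates. TGI is the concentration that stops growth completely.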

Regarding `CCOC(=O)C(NC(=O)Nc1ccccc1)(Nc1cccc(Cl)c1)C(F)(F)F` (stereo not given), the TGI in assay [1], in assay [2], in assay [3], in [4], in assay [5] and in [6] was greater than 100 µM each time. The TGI in [7], in assay [8], in assay [9] and in assay [10] was greater than 100 µM in each case.
With `Cc1cc(C)c2c(=O)n(CC(O)CN3CCN(c4ncccn4)CC3)sc2n1` (stereo not given), the TGI in assay [1] amounted to 29.1 µM; in [2] it was 34.5 µM; in assay [3] it was 22.6 µM; in assay [4], 31.1 µM; in assay [5], 36.5 µM; in assay [6] it was 32.6 µM. Moreover, the TGI in [7] is greater than 100 µM; in [8], greater than 100 µM; in assay [9], 30 µM; in [10], 31.6 µM.
In the case of `C/C(=C/CC[C@](C)(OC1OC(CO)C(O)C(O)C1OC1OC(C)C(O)C(O)C1O)[C@H]1CC[C@]2(C)[C@@H]1CC[C@@H]1[C@@]3(C)CC[C@H](O)C(C)(C)[C@@H]3C[C@H](O)[C@]12C)CO` (stereo not given in full), the TGI in assay [1], in assay [2], in assay [3], in assay [4], in assay [5] and in assay [6] was greater than 100 µM in each case. Also, the TGI in assay [7], in assay [8], in assay [9] and in assay [10] was greater than 100 µM each time.
For `O=C1CCCc2ccc3c(c21)CC1(Cc2cc4c(cc2C1)CCCC4)C3`, the TGI stood at 33.2 µM in assay [1]; 40.3 µM in [2]; 37.4 µM in assay [3]; 72.3 µM in assay [4]; 31.5 µM in [5]; 77.1 µM in assay [6]. The TGI in assay [7] stood at 54.6 µM; in assay [8], 25.1 µM; in [9], 32.4 µM; in assay [10] it was 54.2 µM.
With `O=C(NCCc1ccc(F)cc1)c1cc(/C=C/c2cc(O)ccc2O)ccc1O`, the TGI in assay [1] is 12.5 µM; in assay [2], 8.44 µM; in assay [3], 6.99 µM; in assay [4], 22.3 µM; in assay [5], greater than 30 µM; in assay [6] it was 12.2 µM. Also, the TGI was 7.66 µM in assay [7], greater than 29.2 µM in [8], 3.07 µM in assay [9] and 21.1 µM in assay [10].
As to `CC(=O)O/N=C1\C=Cc2c(no[n+]2[O-])C1=O`, the TGI in assay [1] was 33.2 µM; in assay [2] it was 30 µM; in assay [3] it was 36.6 µM; in [4], 32.7 µM; in assay [5] it was 48.5 µM; in assay [6] it was 38.1 µM. For the same compound, the TGI is 30.3 µM in [7], greater than 100 µM in assay [8], 28.3 µM in assay [9] and 32.9 µM in assay [10].
As to `CCOC(=O)C(C(N)=O)c1nc2cc([N+](=O)[O-])ccc2nc1/C=C(\O)c1ccc(C)cc1` (stereo not given), the TGI in assay [1] is greater than 100 µM; in assay [2], 31.1 µM; in assay [3] it was 1.39 µM; in assay [4], greater than 100 µM; in [5], 25.9 µM; in assay [6] it was 35.8 µM. The TGI in assay [7] is 43 µM; in assay [8], 12.1 µM; in assay [9] it was 49 µM; in assay [10] it was 85.5 µM.
With `CCNc1nc2ccccc2nc1NCC`, the TGI in assay [1], in assay [2], in assay [3], in assay [4], in [5] and in [6] was greater than 100 µM in each case. Also, the TGI in assay [7], in assay [8], in assay [9] and in assay [10] was greater than 100 µM in each case.
Consider `NC(=O)NC1=NCCC(=O)N1CCc1c[nH]c2ccccc12`, for which the TGI was 29.3 µM in assay [1]; 47.8 µM in [2]; 39.1 µM in [3]; greater than 100 µM in [4]; 57.3 µM in assay [5]; 47 µM in assay [6]. The TGI in assay [7] was found to be 42.1 µM; in assay [8], 32.9 µM; in assay [9], 31.8 µM; in assay [10] it was 54.7 µM.
Turning to `COc1cc(/C=C/C(=O)OC[C@]23O[C@H]2[C@@H](OC2OC(C)C(O)C(O)C2O)C2C=CO[C@@H](OC4OC(CO)C(O)C(O)C4O)C23)ccc1O` (stereo not given in full), the TGI in assay [1], in [2], in assay [3], in assay [4], in assay [5] and in assay [6] was greater than 100 µM in each case. The TGI in assay [7], in assay [8], in [9] and in assay [10] was greater than 100 µM in each case.
Consider `COc1ccc(/C=C/C=C2C(=O)NC(=S)NC2=O)cc1`, for which the TGI in assay [1] amounted to 21.7 µM; in assay [2], 29 µM; in assay [3] it was 10 µM; in assay [4] it was 47.1 µM; in [5], 4.63 µM; in [6], 26.8 µM. Moreover, the TGI in assay [7] is 15.4 µM; in [8], greater than 31.9 µM; in assay [9], 19.9 µM; in assay [10] it was 19.5 µM.
Turning to `Nc1c2c(nc3ccccc13)-c1ccccc1CCC2`, the TGI in [1] was 25.8 µM; in [2] it was 29.8 µM; in assay [3], 33 µM; in assay [4], 30 µM; in assay [5], 11 µM; in assay [6] it was 37.2 µM. For the same compound, the TGI is 37.7 µM in assay [7], 33.8 µM in assay [8], 22.3 µM in assay [9] and 36.5 µM in assay [10].
As to `CCCCOP(=O)(OCCCC)C(NS(=O)(=O)c1ccccc1)(C(=O)OCC)C(F)(F)F` (stereo not given), the TGI is 68 µM in assay [1]; 59.5 µM in assay [2]; 58.1 µM in assay [3]; greater than 100 µM in [4]; greater than 100 µM in assay [5]; greater than 100 µM in [6]. For the same compound, the TGI is 65.6 µM in [7], 59.9 µM in assay [8], greater than 100 µM in [9] and 90.4 µM in assay [10].
Turning to `COC(=O)/C=C1\C(=O)N(C(C)=O)c2ccccc21`, the TGI in [1] is 58.7 µM; in [2] it was 23 µM; in assay [3], 31.4 µM; in assay [4] it was 59.1 µM; in [5] it was greater than 27.5 µM; in assay [6], greater than 61.3 µM. For the same compound, the TGI in assay [7] was 22.4 µM; in [8], greater than 96.5 µM; in assay [9], 26.4 µM; in assay [10] it was 24.3 µM.
As for `COc1cc(C(C)(C)C)c(OC(=O)/C=C/C(=O)O/C=C/[N+](=O)[O-])c(C(C)(C)C)c1`, the TGI is 65.6 µM in assay [1]; greater than 100 µM in [2]; greater than 100 µM in assay [3]; greater than 100 µM in [4]; greater than 100 µM in assay [5]; 75.7 µM in assay [6]. The TGI in [7] was greater than 100 µM; in assay [8], greater than 100 µM; in assay [9] it was 76.9 µM; in assay [10], greater than 100 µM.
For the compound `CC(C)=CCC[C@@H](C)c1c(O)c(O)c(C)c2nc3ccccc3nc12`, the TGI in [1] is 12.9 µM; in [2], 3.28 µM; in assay [3] it was greater than 27.9 µM; in assay [4], 17.6 µM; in assay [5] it was greater than 100 µM; in assay [6], 7.22 µM. Also, the TGI in assay [7] is 10.7 µM; in assay [8], greater than 32.5 µM; in assay [9], 5.61 µM; in assay [10], 6.38 µM.
Turning to `COc1cc2[nH]c(=O)[nH]c2c2c(C)c[nH]c12`, the TGI in [1], in assay [2], in assay [3], in assay [4], in [5] and in [6] was greater than 100 µM in each case. Also, the TGI in assay [7], in [8], in [9] and in assay [10] was greater than 100 µM throughout.
For `CC1CN=C(c2ccc3c(c2)Cc2cc(C4=NCC(C)N4)ccc2-3)N1` (stereo not given), the TGI in assay [1] was greater than 100 µM; in [2], 53.7 µM; in assay [3], greater than 100 µM; in assay [4], greater than 100 µM; in assay [5], greater than 100 µM; in [6], 77.7 µM. Also, the TGI in assay [7], in assay [8], in [9] and in assay [10] was greater than 100 µM in each case.
In the case of `Cc1cc([C@H](C#N)c2nc3ccccc3s2)nc(Cl)n1`, the TGI in [1] was 79.2 µM; in [2] it was greater than 100 µM; in [3], greater than 100 µM; in assay [4], greater than 100 µM; in assay [5] it was greater than 100 µM; in [6], 24 µM. In addition, the TGI was 23.3 µM in [7], greater than 100 µM in [8], 21.3 µM in [9] and greater than 100 µM in assay [10].
Take `CS(=O)(=O)c1ccc(C2=C(c3ccccc3)C(=O)OC2)cc1`: the TGI in assay [1], in assay [2], in [3], in assay [4], in assay [5] and in assay [6] was greater than 100 µM throughout. The TGI in [7], in [8], in assay [9] and in [10] was greater than 100 µM throughout.
`Clc1ccc2nc3c(c(-c4ccccc4)nn3-c3ccccc3)c(-c3ccccc3)c2c1`: the TGI in assay [1], in assay [2], in [3], in assay [4], in [5] and in assay [6] was greater than 100 µM each time. For the same compound, the TGI in assay [7], in [8], in assay [9] and in [10] was greater than 100 µM in each case.
Regarding `CO/C=C(/C(=O)OC)c1ccccc1[C@H]1C[C@@H]1c1ccc(OC)cc1`, the TGI in [1] is 51.6 µM; in assay [2] it was 49 µM; in assay [3], 74.5 µM; in assay [4], greater than 100 µM; in assay [5], 45.4 µM; in assay [6], 86.3 µM. Also, the TGI in assay [7] was 45.5 µM; in [8] it was greater than 100 µM; in assay [9] it was greater than 100 µM; in assay [10], greater than 100 µM.
On to `COc1c(Cl)ccc(Cl)c1-c1nnc(-c2c(Cl)c(Cl)c(Cl)c(Cl)c2-c2nc3ccc(C(=O)c4ccccc4)cc3[nH]2)o1`, for which the TGI in assay [1], in assay [2], in [3], in assay [4], in assay [5] and in assay [6] was greater than 100 µM in each case. For the same compound, the TGI in assay [7], in assay [8], in assay [9] and in [10] was greater than 100 µM in each case.
In the case of `CC(C)OCC(O)COc1cc(=O)oc2ccccc12` (stereo not given), the TGI in [1], in assay [2], in assay [3], in assay [4], in [5] and in assay [6] was greater than 100 µM in each case. The TGI in assay [7], in assay [8], in assay [9] and in [10] was greater than 100 µM each time.
Turning to `O=c1[nH]/c(=C/c2cccs2)c(=O)[nH]/c1=C/c1ccc(OCc2ccccc2)cn1`, the TGI is 0.0381 µM in assay [1]; 0.0382 µM in assay [2]; greater than 35.8 µM in [3]; greater than 69.5 µM in [4]; 0.587 µM in [5]; greater than 36.3 µM in assay [6]. In addition, the TGI in [7] is greater than 100 µM; in assay [8], 27.4 µM; in assay [9] it was greater than 100 µM; in assay [10] it was greater than 100 µM.
With `CC1CCC(O)/C=C/C(=O)OC(C)C(O)/C=C/C(=O)O1` (stereo not given), the TGI in assay [1], in assay [2], in [3], in assay [4], in assay [5] and in assay [6] was greater than 100 µM each time. In addition, the TGI in assay [7], in [8], in [9] and in [10] was greater than 100 µM in each case.

Values taken from PubChem BioAssay (NCI).
